Reference: US9174935B2, “Transition metal complexes of bis[thiohydrazide amide] compounds” (Synta Pharmaceuticals Corp., priority 2008, dated 2015)

Columns and labels:
M14 melanoma cells = assay: Cytotoxicity in confluent M14 cells, cell viability by CCK8 assay; type: cell-based; details: Homo sapiens, M14, 48 h
Description: M14 melanoma cells were seeded at 50,000 cells per well of 96-well plate in 100 μl of Dulbecco's minimum essential medium (DMEM) supplemented with 10% fetal bovine serum. Cells were cultured at 37° C. under 5% CO2-95% air. After 16 hours of incubation, the test compound was added to the cell culture. The compound was first diluted in 100% dimethyl sulfoxide (DMSO) at 400-fold of final concentrations actually used in the assay. The DMSO solution was next diluted 20 fold with the culture medium, and then finally added to the assay wells at another 20-fold dilution. The assay medium included the test compound with concentrations as indicated with 0.25% DMSO. Cell viability was measured with a CCK8 assay (as described in the Technical Manual for Cell Counting Kit-8, Product #CK04-11, CK04-13 and CK04-20, Dojindo Molecular Technologies, Inc. MD; Tantular, I. S. et al. Tropical Medicine and International Health, 8(6), 569-574, 2003) in the last 15 min after a 48 h incubation with the test compound. Each bar of the figure expresses average percent inhibition against vehicle (0.25% DMSO) control (n=4). Error bars indicate standard deviation.

[1] = tested on: stage IV metastatic melanoma; details: in combination with paclitaxel, relative to patients treated with paclitaxel alone; cited from earlier work

Row | SMILES | IC50 (M14 melanoma cells) | time to progression [1]
1 | CN(NC(=O)CC(=O)NN(C)C(=S)c1ccccc1)C(=S)c1ccccc1 [A] | > 12.5 µM | –
2 | CN(NC(=O)CC(=O)NN(C)C(=S)c1ccccc1)C(=S)c1ccccc1 [N-malonyl-bis(N′-methyl-N′-thiobenzoylhydrazide)] | – | increase the time to progression
